Experimental data reported in patent US20250186448A1 (Mezzion Pharma Co., Ltd., priority 2021, published 2025).
Where “and” joins values, the source holds several entries; their conditions need not be identical. Equal values may be shown once.

Tested on: adolescents with Single Ventricle Heart Disease who underwent Fontan palliation
Experiment: FALD study: liver stiffness by MR elastography
Format: in vivo, human
Parameters: MRE, Post Baseline: unit not given beside the values; MRE, Change from Baseline / MRE, Baseline: unit not given here
Method: MR elastography uses a vibrating passive driver or “paddle” placed on the abdominal wall over the liver in order to generate in vivo shear waves. These shear waves can be tracked using an MRI modified phase contrast pulse sequence. Shear wave data is then used to generate color parameteric maps (elastograms) of liver stiffness that allow quantitative assessment (FIG. 4). […] Pairwise ICCs ranged from 0.67-0.82 when agreement was assessed between individual sequences across manufacturers (GE vs. Philips); the greatest agreement while fixing the pulse sequence was at 1.5 T using 2D GRE sequences (ICC=0.82, r=0.85). Trout […], Kohli R, Sprague […]. Prospective assessment of correlation between US acoustic radiation forced impulse and MR elastography in a pediatric population: Dispersion of US shear-wave speed measurement matters. Radiology 2016 December; 282(3): 544-552. The FALD study, ClinicalTrials.gov Identifier: NCT03430583, which is incorporated herein by reference in its entirety, was an open-label extension study that integrated with the FUEL Extension Trial. […] Both the U- cohort and the U+ cohort had liver stiffness measured by ultrasound and MR elastography (where available), and ELF biomarkers analyzed, as described above. […] The primary outcome measure of the FALD study was the range of liver stiffness in adolescents with Single Ventricle Heart Disease who underwent Fontan palliation. Secondary outcome measures included the effect of drug therapy on liver stiffness, and the effect of drug therapy on Enhanced Liver Fibrosis (ELF) score. See Clinical Trials.gov identifier NCT03430583, at p. 3. It is to be understood that present invention contemplates udenafil drug products that are therapeutically equivalent to the udenafil drug products of the present invention.

[1] = Cohort U+ (udenafil for 78 weeks), individual subject
[2] = Cohort U− (udenafil for 52 weeks), individual subject
[3] = individual subject listing, Safety Population

CCCOc1ccc(S(=O)(=O)NCCC2CCCN2C)cc1-c1nc2c(CCC)nn(C)c2c(=O)[nH]1 (stereo not shown) [Udenafil, udenafil]
MRE, % Change from Baseline [1]: 2.863% and −2.262% and 12.04% and −0.4975% and 7.265% and −14.99% and −24.27% and 16.67% and 18.93% and 0.4975% and −29.4964% and 2.198% and −16.26% and 10.4% and −20.63% and −8.58% and −11.11% and −19.68% and −21.1704% and −12.02% and −6.235%
MRE, Change from Baseline [1]: 0.15 and −0.1 and 0.49 and −0.03 and 0.98 and 0.34 and −0.52 and −1.59 and 0.81 and 0.03 and −1.64 and 0.1 and −0.86 and 0.7 and −1.05 and −0.58 and −0.67 and −0.98 and −1.23 and −0.59 and −0.26
MRE, Baseline (Cohort U+ (udenafil for 78 weeks), individual subject, Baseline visit): 4.42 and 5.88 and 4.07 and 6.03 (3×) and 4.68 and 3.47 and 6.55 and 4.28 and 5.56 and 3.65 and 4.55 and 5.29 and 6.73 and 5.09 and 6.76 and 4.98 and 5.81 and 4.91 and 4.17 and 5.24
MRE, Post Baseline (Cohort U+ (udenafil for 78 weeks), individual subject, Post Baseline visit (52 week)): 5.39 and 4.32 (2×) and 6.86 and 4.56 and 6 and 5.02 and 2.95 and 4.96 and 5.09 and 6.06 and 3.92 and 4.65 and 4.43 and 7.43 and 4.04 and 6.18 and 5.36 and 4 and 4.58 and 3.91
MRE, % Change from Baseline [2]: 8.484% and 8.085%
MRE, Change from Baseline [2]: 0.61 and 0.19
MRE, Post Baseline (Cohort U− (udenafil for 52 weeks), individual subject, Post Baseline visit (52 week)): 7.8 and 2.54
MRE, % Change from Baseline [3]: 2.488% and −28.79% and 3.632% and −2.018% and −21.1838% and 67.93% and 25.85% and 11.98% and −10.36% and 12.33% and −5.348% and 17.24% and 33.15% and −8% and −7.32%
MRE, Change from Baseline [3]: 0.1 and −1.48 and 0.15 and −0.11 and −1.36 and 3.05 and 1.22 and 0.72 and −0.43 (2×) and 0.64 and 1 and 1.2 and −0.44 and −0.53
MRE, Post Baseline (individual subject listing, Safety Population, Post Baseline visit): 4.12 and 3.66 and 4.28 and 5.34 and 5.06 (2×) and 7.54 and 5.94 and 6.73 and 3.72 and 5.83 and 2.81 and 7.61 and 6.8 and 4.82 and 6.71
